Test results reported in paper PMC5760531, “Action Potential Recording and Pro-arrhythmia Risk Analysis in Human Ventricular Trabeculae” (Frontiers in Physiology, 2018).

Tested on: human ventricular trabeculae
Experiment: Action potential recording and pro-arrhythmic score analysis in human ventricular trabeculae (hVT);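 further: sharp microelectrode action potential recordings at 37°C in Tyrode-perfused trabeculae, 4 cumulative concentrations each applied 31 min, values averaged over last 30 APs, vehicle 0.1% DMSO as control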
Conditions: for Refractoriness Escape (raw data) / Beat Escape (raw data) / EADs (raw data): n=4 trabeculae

## Nc1nnc(-c2cccc(Cl)c2Cl)c(N)n1 [LAMOTRIGINE, Lamotrigine]
1Hz, 59-FOLD free ETPC (17µM)
  Refractoriness Escape (raw data): 0
2Hz, 0.6-FOLD free ETPC (17µM)
  AMAX (average raw data): 97
  AMAX percentage change compared to vehicle control: -7%
  APD30 (average raw data): 107
  APD30 percentage change compared to vehicle control: 2%
  APD50 (average raw data): 149
  APD50 percentage change compared to vehicle control: 3%
  APD90 (average raw data): 232
  APD90 percentage change compared to vehicle control: 2%
  Alternans (average raw data): 0.95
  Alternans percentage change compared to vehicle control: -59%
  Beat Escape percentage change compared to vehicle control: 0%
  EADs percentage change compared to vehicle control: 0%
  ERP (average raw data): 0.46
  ERP percentage change compared to vehicle control: 4%
  Max Dispersion (average raw data): 6.98
  Max Dispersion percentage change compared to vehicle control: 7%
  RMP (average raw data): -82
  RMP percentage change compared to vehicle control: -3%
  Refractoriness Escape percentage change compared to vehicle control: 0%
  STV (average raw data): 0.58
  Triangulation (average raw data): 124
  Triangulation percentage change compared to vehicle control: 2%
  Beat Escape (raw data): 0
  EADs (raw data): 0
  Refractoriness Escape (raw data): 0
2Hz, 6-FOLD free ETPC (17µM)
  AMAX (average raw data): 103
  AMAX percentage change compared to vehicle control: -2%
  APD30 (average raw data): 103
  APD30 percentage change compared to vehicle control: -1%
  APD50 (average raw data): 139
  APD50 percentage change compared to vehicle control: -3%
  APD90 (average raw data): 221
  APD90 percentage change compared to vehicle control: -3%
  Alternans (average raw data): 4.34
  Alternans percentage change compared to vehicle control: 90%
  Beat Escape percentage change compared to vehicle control: 25%
  EADs percentage change compared to vehicle control: 0%
  ERP (average raw data): 0.41
  ERP percentage change compared to vehicle control: -7%
  Max Dispersion (average raw data): 10.50
  Max Dispersion percentage change compared to vehicle control: 62%
  RMP (average raw data): -87
  RMP percentage change compared to vehicle control: 3%
  Refractoriness Escape percentage change compared to vehicle control: 0%
  STV (average raw data): 2.93
  Triangulation (average raw data): 117
  Triangulation percentage change compared to vehicle control: -4%
  Beat Escape (raw data): 1
  EADs (raw data): 0
  Refractoriness Escape (raw data): 0
2Hz, 18-FOLD free ETPC (17µM)
  AMAX (average raw data): 85
  AMAX percentage change compared to vehicle control: -16%
  APD30 (average raw data): 110
  APD30 percentage change compared to vehicle control: 4%
  APD50 (average raw data): 139
  APD50 percentage change compared to vehicle control: -4%
  APD90 (average raw data): 227
  APD90 percentage change compared to vehicle control: 2%
  Alternans (average raw data): 34.70
  Alternans percentage change compared to vehicle control: 1417%
  Beat Escape percentage change compared to vehicle control: 100%
  EADs percentage change compared to vehicle control: 0%
  ERP (average raw data): 0.33
  ERP percentage change compared to vehicle control: -25%
  Max Dispersion (average raw data): 42.23
  Max Dispersion percentage change compared to vehicle control: 550%
  RMP (average raw data): -90
  RMP percentage change compared to vehicle control: 10%
  Refractoriness Escape percentage change compared to vehicle control: 0%
  STV (average raw data): 18.59
  Triangulation (average raw data): 117
  Triangulation percentage change compared to vehicle control: -1%
  Beat Escape (raw data): 4
  EADs (raw data): 0
  Refractoriness Escape (raw data): 0
2Hz, 59-FOLD free ETPC (17µM)
  AMAX (average raw data): 48
  AMAX percentage change compared to vehicle control: -52%
  APD30 (average raw data): 106
  APD30 percentage change compared to vehicle control: 4%
  APD50 (average raw data): 145
  APD50 percentage change compared to vehicle control: 7%
  APD90 (average raw data): 268
  APD90 percentage change compared to vehicle control: 34%
  Alternans (average raw data): 3.93
  Alternans percentage change compared to vehicle control: 72%
  Beat Escape percentage change compared to vehicle control: 100%
  EADs percentage change compared to vehicle control: 0%
  ERP (average raw data): 0.41
  ERP percentage change compared to vehicle control: -7%
  Max Dispersion (average raw data): 21.90
  Max Dispersion percentage change compared to vehicle control: 237%
  RMP (average raw data): -74
  RMP percentage change compared to vehicle control: -6%
  Refractoriness Escape percentage change compared to vehicle control: 0%
  STV (average raw data): 2.81
  Triangulation (average raw data): 162
  Triangulation percentage change compared to vehicle control: 64%
  Beat Escape (raw data): 4
  EADs (raw data): 0
  Refractoriness Escape (raw data): 0
At 10-fold human free ETPC, score >10 unsafe, <10 safe
  TdP identification by pro-arrhythmic score: TdP positive
At 100, 300, and 1,000 μM
  pro-arrhythmic score: above 40
At therapeutic exposure
  pro-arrhythmic score: below 10
